Source: patent US20260137701A1, “CHOLESTENOIC ACID (CA) AND A SULFATED DERIVATIVE THEREOF, 3[BETA]-SULFATE-5-CHOLESTENOIC ACID (CA3S), AS ENDOGENOUS EPIGENETIC REGULATORS” (priority 2022, published 2026)

Legend:
NAFLD mouse model = assay: western diet-induced NAFLD mice model, health and serum enzymes; format: in vivo; details: 10 mg/kg CA injection, two weeks
Description: The animal studies were approved by the Institutional Animal Care and Use Committee of McGuire Veterans Affairs Medical Center and conducted in accordance with the Declaration of Helsinki, the Guide for the Care and Use of Laboratory Animals, and all applicable regulations. In this study, a western diet-induced nonalcoholic fatty liver disease (NAFLD) mice model was used. To create the model, eight-week-old C57BL/6J female mice were purchased from the Jackson Laboratory and fed a western diet (TD.88137, Envigo) along with high glucose/fructose water (WDSW) containing 23.1 g/L fructose and 18.9 g/L glucose for 12 weeks. After establishing the model, the mice were separated into three groups based on their weight. For the control mice in each group, they received intravenous injection (IV) with vehicle (DMSO). In contrast, the treatment group mice were intravenously injected with 10 mg/kg of CA (dissolved in DMSO) with a total volume of less than 100 μl. During the treatment period, injections were administered every two days. All mice were housed under identical conditions in an aseptic facility with a 12-hour light/12-hour dark cycle and provided with free access to water and food (WDSW). Before scarification, the mice fasted overnight. Blood samples were collected, and the serum enzymatic activities of alkaline phosphatase (ALK), alanine aminotransferase (ALT), and aspartate aminotransferase (AST) were measured in the clinical laboratory at McGuire Veterans Affairs Medical Center.

AMPK = assay: Western blot analysis of AMPK protein; format: cell-based, human; details: HepG-2, high glucose media, 20 μM CA, 24 hours
Method: Specific proteins were analyzed by western blot. The proteins were extracted using M-PER™ Mammalian Protein Extraction Reagents (Fisher Scientific). For each sample, 20 μg of proteins were separated on 8%-12% SDS polyacrylamide gel electrophoresis (SDS-PAGE) gels. Electrophoresis was performed at 100V for 15 min and 200V for another 25 min in a Bio-Rad mini-gel system. After electrophoresis, samples were transferred onto a polyvinylidene difluoride (PVDF) membrane at 30V for 50 min. The specific proteins on the membrane were detected by incubation with anti-AMPKα1/2 (Santa Cruz Biotechnologies) primary antibody at 4° C. overnight, followed by further incubation with an appropriate horseradish peroxidase (HRP)-conjugated secondary antibody (Bio-Rad) at room temperature for 1 hr. Each positive band was quantified by Advanced Image Data Analyzer (Aida, Straubenhardt, Germany).

[1] = system: normal primary human hepatocytes (PHH)
recombinant DNMT1 = recombinant DNMT1 (Homo sapiens, UniProt P26358); assay: DNMT1 enzyme kinetic (activity) assay, 3H-SAM filter; format: biochemical
Method: The enzyme kinetic studies were carried out by Reaction Biology Company. For the DNMT1 activity assay, the substrate solution, 0.001 mg/ml Poly(dI-dC): Poly(dI-dC) in 50 mM Tris-HCl, pH 7.5, 50 mM NaCl, 5 mM EDTA, 5 mM DTT, 1 mM PMSF, 5% glycerol, 0.01% Brij™35, 1% DMSO was used. For the DNMT3a/3b activity assay, 0.0075 mg/ml Lambda DNA in 50 mM Tris-HCl, pH 7.5, 50 mM NaCl, 5 mM EDTA, 5 mM DTT, 1 mM PMSF, 5% glycerol, 1% DMSO, was used. The indicated DNMT1, DNMT3a and DNMT3b were added to the appropriate substrate solution and gently mixed. Amounts of CA ranging from 5.08E-09 to 0.0001 M in DMSO were added to the reaction mixture by using Acoustic Technology (Echo® 550, LabCyte Inc. Sunnyvale, CA). The mixtures were first incubated for 15 min, then ^3H-SAM was added to the reaction mixture to initiate the reaction, and the mixture was incubated for 60 min at 30° C. Following incubation, the reaction mixture was finally transferred to filter-paper for detection of radioactivity counts.

HepG-2 cells = assay: LC-MS/MS determination of CA levels in total cellular and nuclear extracts; format: in vitro ADME, human; details: addition of 20 μM CA
Method: HepG-2 cells, 5,000 cells/cm^2, were cultured in DMEM (HG, 10% FBS) medium for 3 days, and then treated with 20 μM of CA for 0, 3, 6, 12, and 24 hours. After treatment, the cells were washed twice with cold PBS then harvested with 1 ml PBS. For total cell extraction, the cells were collected by centrifuge at 1,000 rpm for 5 min. For nuclei extraction, the nuclear fractions were extracted according to the manufacture's instructions for NE-PER™ Nuclear and Cytoplasmic Extraction Reagents (Thermo Scientific, Rockford, IL). Total proteins in the cell and nuclear fractions were digested with proteinase K (2 mg/ml), incubated at 50° C. with shaking for 3 hours. The total lipids in the total cell and nuclear fractions were extracted with 10 volumes of chloroform:methanol 1:1, vortexed, and sonicated for 30 mins. The extracts were centrifuged at 1,000 rpm for 5 min, the supernatants were dried up by stream nitrogen, then dissolved with 200 μl of methanol, 2 μl of the extracts were used for the CA analysis by LC-MS/MS system as below.
Shimadzu LCMS-8600 CL LC-MS system equipped with electrospray ionization (ESI) were used to determine the CA levels. Data were collected and processed using Shimadzu Lab solutions software. Hypersil Gold™ C18 (50 mm×2.1 mm inner diameter, particle size 2.6 μm, Thermo Scientific) was maintained at 40° C. during the analysis. […]

Chain of recombinant DNMT1 (P26358 whole entry): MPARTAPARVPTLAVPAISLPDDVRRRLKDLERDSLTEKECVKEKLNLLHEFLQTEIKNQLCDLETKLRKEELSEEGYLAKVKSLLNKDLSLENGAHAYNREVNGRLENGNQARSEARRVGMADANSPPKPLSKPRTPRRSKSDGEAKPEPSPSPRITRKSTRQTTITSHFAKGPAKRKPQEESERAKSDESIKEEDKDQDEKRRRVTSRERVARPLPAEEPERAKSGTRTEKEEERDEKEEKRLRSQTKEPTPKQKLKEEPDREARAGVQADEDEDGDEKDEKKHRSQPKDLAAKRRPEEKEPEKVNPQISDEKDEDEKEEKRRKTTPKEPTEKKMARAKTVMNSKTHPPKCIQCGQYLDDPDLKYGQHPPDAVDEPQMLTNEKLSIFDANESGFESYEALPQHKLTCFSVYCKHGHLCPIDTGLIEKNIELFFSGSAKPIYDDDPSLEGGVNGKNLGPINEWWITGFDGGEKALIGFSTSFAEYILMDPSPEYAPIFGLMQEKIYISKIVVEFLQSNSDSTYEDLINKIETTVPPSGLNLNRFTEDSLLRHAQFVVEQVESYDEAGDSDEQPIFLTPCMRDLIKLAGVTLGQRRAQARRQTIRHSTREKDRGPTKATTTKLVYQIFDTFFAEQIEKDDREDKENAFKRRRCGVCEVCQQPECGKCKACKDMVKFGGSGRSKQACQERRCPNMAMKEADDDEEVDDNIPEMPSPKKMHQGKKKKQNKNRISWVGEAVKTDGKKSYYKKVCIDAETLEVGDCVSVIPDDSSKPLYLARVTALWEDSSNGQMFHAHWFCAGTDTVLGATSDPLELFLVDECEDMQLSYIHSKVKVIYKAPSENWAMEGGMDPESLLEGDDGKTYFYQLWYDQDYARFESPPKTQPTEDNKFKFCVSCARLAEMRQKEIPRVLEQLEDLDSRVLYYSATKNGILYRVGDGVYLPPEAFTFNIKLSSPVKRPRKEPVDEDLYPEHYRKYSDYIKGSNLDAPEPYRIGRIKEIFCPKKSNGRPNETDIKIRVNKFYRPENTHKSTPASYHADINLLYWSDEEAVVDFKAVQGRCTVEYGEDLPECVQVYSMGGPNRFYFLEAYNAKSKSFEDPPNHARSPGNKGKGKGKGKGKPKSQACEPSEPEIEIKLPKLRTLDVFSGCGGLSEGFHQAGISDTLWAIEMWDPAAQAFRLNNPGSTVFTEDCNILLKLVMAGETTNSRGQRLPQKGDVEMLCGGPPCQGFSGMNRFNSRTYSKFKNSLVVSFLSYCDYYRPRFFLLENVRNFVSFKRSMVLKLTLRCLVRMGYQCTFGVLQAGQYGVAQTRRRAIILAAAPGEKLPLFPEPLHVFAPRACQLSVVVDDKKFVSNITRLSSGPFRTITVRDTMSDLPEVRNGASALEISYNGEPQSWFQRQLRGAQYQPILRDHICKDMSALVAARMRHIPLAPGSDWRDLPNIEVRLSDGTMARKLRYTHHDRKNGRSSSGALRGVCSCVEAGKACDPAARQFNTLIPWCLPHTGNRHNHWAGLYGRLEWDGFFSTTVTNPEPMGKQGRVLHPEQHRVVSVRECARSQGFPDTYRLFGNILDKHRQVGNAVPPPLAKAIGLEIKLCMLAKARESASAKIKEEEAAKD

CC(CCC[C@@H](C)[C@H]1CC[C@H]2[C@@H]3CC=C4C[C@@H](O)CC[C@]4(C)[C@H]3CC[C@]12C)C(=O)O (stereo partly drawn) [CA, 3β-hydroxy-5-cholestenoic acid]
in vivo toxicity, health of mice (NAFLD mouse model): remained in good health | serum activity of ALK (NAFLD mouse model): significant decrease | serum activity of ALT (NAFLD mouse model): significant decrease | protein levels of AMPK (AMPK): significantly increased | death of normal primary human hepatocytes [1]: not the death | IC50 (recombinant DNMT1; at higher concentration, read-out: IC50, inhibits DNMT1 activity): 9.13 µM | EC50 (recombinant DNMT1; at low concentration, mean±SD, n=3, read-out: EC50, activates DNMT1): 1.99 µM | increase of CA in cellular nuclei (HepG-2 cells; 6 hours): 4 fold | increase of intracellular CA levels (HepG-2 cells; 12 hours): 85 fold
